Results from patent US20170232083A1, “METHODS OF DIAGNOSIS AND TREATMENT OF CELIAC DISEASE IN CHILDREN” (priority 2014, published 2017).

Assays:
[1] = test system: PBMC (polyclonal gluten-specific T cells) of paediatric and adult CD patients; assay: IFN-γ ELISpot of PBMC after 3 day oral wheat challenge (SFU, % of maximal peptide response, dominance scores, EC50; Examples 5-6); format: cell-based, human; conditions: for IFN-γ ELISpot response: after oral wheat challenge
[2] = test system: PBMC (polyclonal gluten-specific T cells) of paediatric and adult CD patients; conditions: corresponding adult data shown for comparison (14); cited from earlier work

LPYPQPELPYPQP [Peptide W01]
Dominance score 3-5yrs (n = 9) ([1]; CD children 3-5yrs, n = 9, following wheat challenge, mean percentage of maximal peptide response): 68.5 | Dominance score 6-10yrs (n = 10) ([1]; CD children 6-10yrs, n = 10, following wheat challenge, mean percentage of maximal peptide response): 71.7 | Dominance score 11-18yrs (n = 11) ([1]; CD children 11-18yrs, n = 11, following wheat challenge, mean percentage of maximal peptide response): 51.0 | Dominance score Mean all ages ([1]; CD children, all ages, following wheat challenge (Table 9)): 62.6 | dominance hierarchy across all age groupings ([1]; Example 5): most dominant three peptides | dominance hierarchy across all age groups ([1]; Example 6): most dominant four peptides | Dominance scores 3-5 yrs ([1]; children with celiac disease 3-5 yrs after wheat challenge (Table 14)): 65 | Dominance scores 6-10 yrs ([1]; children with celiac disease 6-10 yrs after wheat challenge (Table 14)): 72 | Dominance scores 11-18 yrs ([1]; children with celiac disease 11-18 yrs after wheat challenge (Table 14)): 51 | Dominance scores Mean all ages ([1]; mean of all subjects (Table 14)): 62 | IFN-γ ELISpot response ([1]; patient A, 11-17 yrs, cut-off 10 SFU): 2 SFU | Significant response as percentage of maximal peptide SFU ([1]; patient D, max peptide 30.5 SFU): ′′ (21-40% = ′′) | IFN-γ ELISpot response ([1]; patient E, H, 11-17 yrs, cut-off 10 SFU): 111 SFU | Significant response as percentage of maximal peptide SFU ([1]; patient E, max peptide 224 SFU): ′′′ (41-70% = ′′′) | IFN-γ ELISpot response ([1]; patient F, 11-17 yrs, cut-off 10 SFU): 161 SFU | Significant response as percentage of maximal peptide SFU ([1]; patient F, max peptide 178 SFU): + (>70% = +) | IFN-γ ELISpot response ([1]; patient G, 11-17 yrs, cut-off 10 SFU): 7 SFU | IFN-γ ELISpot response ([1]; patient H (HLA-DQ2.5 homozygote), 3-5yrs, cut-off 10 SFU): 33 SFU | IFN-γ ELISpot response ([1]; patient H, 11-17 yrs, cut-off 10 SFU): 10 SFU | Significant response as percentage of maximal peptide SFU ([1]; patient H, max peptide 17 SFU): ′′′ (41-70% = ′′′) | IFN-γ ELISpot response ([1]; patient ID not given, 11-17 yrs, cut-off 10 SFU): 62 SFU | Significant response as percentage of maximal peptide SFU ([1]; patient ID not given, max peptide 95 SFU): ′′′ (41-70% = ′′′) | Significant response as percentage of maximal peptide SFU ([1]; patient II, max peptide 15 SFU): + (>70% = +) | Significant response as percentage of maximal peptide SFU ([1]; patient J, max peptide 196 SFU): + (>70% = +) | Significant response as percentage of maximal peptide SFU ([1]; patient K, max peptide 53 SFU): + (>70% = +) | Significant response as percentage of maximal peptide SFU ([1]; patient L, max peptide 11 SFU): + (>70% = +) | Significant response as percentage of maximal peptide SFU ([1]; patient M, max peptide 48 SFU): ′′′ (41-70% = ′′′) | IFN-γ ELISpot response ([1]; patient N, 3-5yrs, cut-off 10 SFU): 6 SFU | IFN-γ ELISpot response ([1]; patient P, 11-17 yrs, cut-off 21.6 SFU): 36 SFU | Significant response as percentage of maximal peptide SFU ([1]; patient P, max peptide 64 SFU): ′′′ (41-70% = ′′′) | IFN-γ ELISpot response ([1]; patient Q, 11-17 yrs, cut-off 10 SFU): 78 SFU | Significant response as percentage of maximal peptide SFU ([1]; patient Q, max peptide 97 SFU): + (>70% = +) | IFN-γ ELISpot response ([1]; patient U, H, 11-17 yrs, cut-off 10 SFU): 44 SFU | Significant response as percentage of maximal peptide SFU ([1]; patient U, max peptide 81 SFU): ′′′ (41-70% = ′′′) | IFN-γ ELISpot response ([1]; patient V, 6-10 yrs, cut-off 10 SFU): 35 SFU | Significant response as percentage of maximal peptide SFU ([1]; patient V, max peptide 35 SFU): + (>70% = +) | IFN-γ ELISpot response ([1]; patient Y, 6-10 yrs, cut-off 10 SFU): 16 SFU | Significant response as percentage of maximal peptide SFU ([1]; patient Y, max peptide 16 SFU): + (>70% = +) | IFN-γ ELISpot response ([1]; patient eleven, 6-10 yrs, cut-off 10 SFU): 45 SFU | Significant response as percentage of maximal peptide SFU ([1]; patient eleven, max peptide 57 SFU): + (>70% = +) | Significant response as percentage of maximal peptide SFU ([1]; patient five, max peptide 48 SFU): ′′′ (41-70% = ′′′) | IFN-γ ELISpot response ([1]; patient four, 3-5yrs, cut-off 10 SFU): 44 SFU | Significant response as percentage of maximal peptide SFU ([1]; patient four, max peptide 44 SFU): + (>70% = +) | IFN-γ ELISpot response ([1]; patient seven, 6-10 yrs, cut-off 10.5 SFU): 3 SFU | IFN-γ ELISpot response ([1]; patient ten, 3-5yrs, cut-off 10 SFU): 9 SFU | IFN-γ ELISpot response ([1]; patient three, 6-10 yrs, cut-off 10.5 SFU): 196 SFU | IFN-γ ELISpot response ([1]; patient twelve, 11-17 yrs, cut-off 10 SFU): 12 SFU | IFN-γ ELISpot response ([1]; patient two, 3-5yrs, cut-off 10 SFU): 33 SFU | Significant response as percentage of maximal peptide SFU ([1]; patient two, max peptide 60 SFU): ′′′ (41-70% = ′′′) | Dominance scores 18+ yrs [2]: 69
